According to publication PMC6269910 (Molecules, 2013):

Key:
glutathione (GSH) = test: GSH level in liver, kidney, colon, brain; format: in vivo, mice; conditions: 72 h
Protocol: (§1) Tissue samples were homogenized with ice-cold 150 mM KCl for the determination of LPO and glutathione (GSH) levels. The LPO levels were assayed by monitoring TBARS formation as described above.

myeloperoxidase (MPO) = test: MPO activity in liver, kidney, colon, brain; format: in vivo, mice; conditions: 72 h
Protocol: MPO is an enzyme that is found predominantly in the azurophilic granules of polymorphonuclear leukocytes (PMN). […] MPO activity was measured in tissues in a procedure similar to that documented by […] et al.

[1] = test system: superoxide dismutase (SOD); test: SOD activity in liver, kidney, colon, brain; format: in vivo, mice; conditions: 72 h
Protocol: SOD is a major antioxidant enzyme found in cells, which protect cells from oxidative stress. SOD activity in the tissue samples was measured according to the previously described method.

[2] = test system: 60 human tumor cell lines; test: NCI60 in vitro cancer screen; format: cell-based; conditions: 10 µM; variety of cell lines
Description: The selected compound N-(ethylcarbamothioyl)-4-[5-(4-methylphenyl)-3-(trifluoromethyl)-1H-pyrazol-1-yl]benzenesulfonamide (1a) was screened by the National Institutes of Health (NIH) for anticancer activity against 60 human tumor cell lines. Most of the compounds in the series of structures submitted include one or more functional groups that have been found troublesome to the development of successful drug candidates. In addition, the selection criteria guidance available at the following DTP web site: http://www.dtp.nci.nih.gov/docs/misc/common_files/guidelines.html. For NCI criteria, compounds, which reduce the growth of any one of the cell lines to approximately 32% or less, are passed on for evaluation in the full panel of cell lines over a 5-log dose range.
The methodology of the NCI60 in vitro cancer screen can be found on-line at http://dtp.nci.nih.gov/branches/btb/ivclsp.html and can be reviewed on their web site.

[3] = test system: carrageenan-induced hind paw edema; test: Carrageenan-induced hind paw edema model; format: in vivo, mice
LPO = LPO (TBARS) level in liver, kidney, colon, brain; format: in vivo, mice; conditions: 72 h
Protocol: as §1

stomach = test: Gastric-ulcerogenic effect (ulcer score); format: in vivo, mice; conditions: 200 mg/kg p.o.; animals with lesions/animals
[4] = target: T1, HCV NS5B RNA dependent RNA polymerase (Hepatitis C virus genotype 1b, UniProt P26663); test: NS5B inhibition assay (primer dependent elongation, poly rA-U12); format: biochemical; conditions: read-out: Anti-NS5B Activity (% Inh., 100 µM)
T1 construct: HCV NS5B RNA dependent RNA polymerase activity
Summary of the method: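 Primer-dependent elongation on poly rA-U12 by HCV genotype 1b NS5B RdRp; compounds from DMSO stocks, preliminary screen at 100 μM. Activity expressed relative to a DMSO-matched no-inhibitor control set at 100%.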

T1 sequence (P26663 2420-3010): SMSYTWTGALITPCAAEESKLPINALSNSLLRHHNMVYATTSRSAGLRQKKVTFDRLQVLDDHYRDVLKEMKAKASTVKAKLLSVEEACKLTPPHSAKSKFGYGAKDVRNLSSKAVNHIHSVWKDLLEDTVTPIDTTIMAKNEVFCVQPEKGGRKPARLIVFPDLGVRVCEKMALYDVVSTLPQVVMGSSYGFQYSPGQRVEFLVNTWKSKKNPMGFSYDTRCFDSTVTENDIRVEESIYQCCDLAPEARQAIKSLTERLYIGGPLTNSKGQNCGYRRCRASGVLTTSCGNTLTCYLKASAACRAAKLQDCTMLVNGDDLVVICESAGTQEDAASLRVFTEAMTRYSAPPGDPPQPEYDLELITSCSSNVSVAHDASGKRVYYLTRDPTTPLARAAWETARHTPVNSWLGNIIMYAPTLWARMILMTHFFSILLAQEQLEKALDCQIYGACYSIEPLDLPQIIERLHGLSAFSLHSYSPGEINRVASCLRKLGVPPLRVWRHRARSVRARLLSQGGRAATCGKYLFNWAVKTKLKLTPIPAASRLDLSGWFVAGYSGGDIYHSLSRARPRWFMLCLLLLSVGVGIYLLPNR

SMILES: CCNC(=S)NS(=O)(=O)c1ccc(-n2nc(C(F)(F)F)cc2-c2ccc(C)cc2)cc1 [Compound 1a, N-(Ethylcarbamothioyl)-4-[5-(4-methylphenyl)-3-(trifluoromethyl)-1H-pyrazol-1-yl] benzenesulfonamide]
- GSH (glutathione (GSH); brain, 100 mg/kg oral): 18.7 ± 5.52 µmol/g tissue
- GSH (glutathione (GSH); brain, 200 mg/kg oral): 18.74 ± 3.03 µmol/g tissue
- GSH (glutathione (GSH); colon, 100 mg/kg oral): 27.22 ± 2.41 µmol/g tissue
- GSH (glutathione (GSH); colon, 200 mg/kg oral): 25.16 ± 2.76 µmol/g tissue
- GSH (glutathione (GSH); kidney, 100 mg/kg oral): 17.02 ± 5.23 µmol/g tissue
- GSH (glutathione (GSH); kidney, 200 mg/kg oral): 18.26 ± 3.28 µmol/g tissue
- GSH (glutathione (GSH); liver, 100 mg/kg oral): 22.68 ± 1.20 µmol/g tissue
- GSH (glutathione (GSH); liver, 200 mg/kg oral): 24.58 ± 4.47 µmol/g tissue
- MPO (myeloperoxidase (MPO); brain, 100 mg/kg oral): 0.73 ± 0.32 U/gtissue
- MPO (myeloperoxidase (MPO); brain, 200 mg/kg oral): 1.95 ± 0.60 U/gtissue
- MPO (myeloperoxidase (MPO); colon, 100 mg/kg oral): 0.27 ± 0.13 U/gtissue
- MPO (myeloperoxidase (MPO); colon, 200 mg/kg oral): 0.38 ± 0.14 U/gtissue
- MPO (myeloperoxidase (MPO); kidney, 100 mg/kg oral): 3.18 ± 2.66 U/g tissue
- MPO (myeloperoxidase (MPO); kidney, 200 mg/kg oral): 4.59 ± 1.01 U/g tissue
- MPO (myeloperoxidase (MPO); liver, 100 mg/kg oral): 0.50 ± 0.28 U/gtissue
- MPO (myeloperoxidase (MPO); liver, 200 mg/kg oral): 0.15 ± 0.08 U/gtissue
- SOD ([1]; brain, 100 mg/kg oral): 19.17 ± 7.41 U/g tissue
- SOD ([1]; brain, 200 mg/kg oral): 19.22 ± 10.76 U/g tissue
- SOD ([1]; colon, 100 mg/kg oral): 16.56 ± 4.13 U/g tissue
- SOD ([1]; colon, 200 mg/kg oral): 21.17 ± 4.15 U/g tissue
- SOD ([1]; kidney, 100 mg/kg oral): 20.26 ± 8.71 U/g tissue
- SOD ([1]; kidney, 200 mg/kg oral): 15.37 ± 7.33 U/g tissue
- SOD ([1]; liver, 100 mg/kg oral): 21.15 ± 9.98 U/g tissue
- SOD ([1]; liver, 200 mg/kg oral): 11.72 ± 5.10 U/g tissue
- cell growth inhibition [2]: negligible
- Swelling in thickness ± SEM ([3]; 50 mg/kg per os, 90 min): 70.0 ± 6.5 × 10^−2 mm
- percent inhibitory activity ([3]; 50 mg/kg per os, 90 min): 2.7%
- Swelling in thickness ± SEM ([3]; 50 mg/kg per os, 180 min): 72.0 ± 5.1 × 10^−2 mm
- percent inhibitory activity ([3]; 50 mg/kg per os, 180 min): 21.7%
- Swelling in thickness ± SEM ([3]; 50 mg/kg per os, 270 min): 90.0 ± 9.3 × 10^−2 mm
- percent inhibitory activity ([3]; 50 mg/kg per os, 270 min): 25.6%
- Swelling in thickness ± SEM ([3]; 50 mg/kg per os, 360 min): 100.0 ± 6.5 × 10^−2 mm
- percent inhibitory activity ([3]; 50 mg/kg per os, 360 min): 22.4%
- Swelling in thickness ± SEM ([3]; 100 mg/kg per os, 90 min): 58.1 ± 6.6 × 10^−2 mm
- percent inhibitory activity ([3]; 100 mg/kg per os, 90 min): 19.4%
- Swelling in thickness ± SEM ([3]; 100 mg/kg per os, 180 min): 72.9 ± 11.9 × 10^−2 mm
- percent inhibitory activity ([3]; 100 mg/kg per os, 180 min): 19.7%
- Swelling in thickness ± SEM ([3]; 100 mg/kg per os, 270 min): 72.7 ± 16.7 × 10^−2 mm
- percent inhibitory activity ([3]; 100 mg/kg per os, 270 min): 39.5%
- Swelling in thickness ± SEM ([3]; 100 mg/kg per os, 360 min): 77.9 ± 11.7 × 10^−2 mm
- percent inhibitory activity ([3]; 100 mg/kg per os, 360 min): 39.7%
- Swelling in thickness ± SEM ([3]; 200 mg/kg per os, 90 min): 54.6 ± 7.9 × 10^−2 mm
- percent inhibitory activity ([3]; 200 mg/kg per os, 90 min): 25.0%
- Swelling in thickness ± SEM ([3]; 200 mg/kg per os, 180 min): 74.2 ± 8.2 × 10^−2 mm
- percent inhibitory activity ([3]; 200 mg/kg per os, 180 min): 19.3%
- Swelling in thickness ± SEM ([3]; 200 mg/kg per os, 270 min): 117.5 ± 9.8 × 10^−2 mm
- percent inhibitory activity ([3]; 200 mg/kg per os, 270 min): 2.9%
- Swelling in thickness ± SEM ([3]; 200 mg/kg per os, 360 min): 97.4 ± 5.6 × 10^−2 mm
- percent inhibitory activity ([3]; 200 mg/kg per os, 360 min): 24.5%
- anti-inflammatory activity (in words) ([3]; all doses, all measurement intervals): moderate-to-good
- melting point: 215 to 218 °C
- LPO (LPO; brain, 100 mg/kg oral): 8.36 ± 2.61 nmol/g tissue
- LPO (LPO; brain, 200 mg/kg oral): 9.40 ± 2.08 nmol/g tissue
- LPO (LPO; colon, 100 mg/kg oral): 8.66 ± 2.23 nmol/g tissue
- LPO (LPO; colon, 200 mg/kg oral): 11.04 ± 2.11 nmol/g tissue
- LPO (LPO; kidney, 100 mg/kg oral): 10.96 ± 2.01 nmol/g tissue
- LPO (LPO; kidney, 200 mg/kg oral): 12.56 ± 2.96 nmol/g tissue
- LPO (LPO; liver, 100 mg/kg oral): 9.78 ± 1.30 nmol/gtissue
- LPO (LPO; liver, 200 mg/kg oral): 13.72 ± 3.05 nmol/gtissue
- Ulcer score (stomach): 0/5
- inhibition at 100 µM [4]: 49.4%
